Experimental data: patent US20230357134A1, “AGENTS FOR USE IN THE TREATMENT OF AMYLOIDOSIS” (UCL BUSINESS LTD, priority 2020, published 2023)

Key:
isolated wild type TTR = target: T1, isolated wild type TTR (Homo sapiens, UniProt P02766); experiment: Displacement of 125I-T4 from isolated wild type TTR in buffer; conditions: concentration of ligand reducing binding of 125I-T4 by TTR by 50%; 125 nM TTR, pH 8.0, overnight 4° C.; mean of at least 3 replicates; read-out: D50 buffer
T1 construct: the non-covalently associated protomers, of mass 13,761, each contain 127 residues; His6 (N); TEV cleavage site (N); made in house; host or cells: E. coli BL21 (DE3)
Procedure: 3. Evaluation of Ligand Activity Based on Capacity to Displace ^125I-Thyroxine (T4) from TTR in Buffer/Human Plasma 3.1 Displacement of ^125I-T4 from Isolated Wild Type TR.
Competition of ligands with T4 for binding by TTR was assayed quantitatively by a previously described procedure (Kolstoe et al., 2010). Briefly, a solution of 125 nM TTR in 0.1 M Tris-HCl, 0.1 M NaCl and 0.001 M EDTA buffer, pH 8.0, was incubated overnight at 4° C. in the presence of 1.07 nM ^125I T4 (1,200 μCi/μg, 200 μCi/ml, Perkin Elmer) and increasing concentrations of inhibitor (0-5 μM) in 40 μl final volume. ^125I T4 bound by TTR was separated from unbound T4 by gel filtration chromatography using Micro Bio Spin 6 columns (Bio-Rad) previously equilibrated with the reaction buffer containing 1% w/v BSA. After counting with a Wizard2 gamma counter (Perkin-Elmer) for 60 s, percentage binding was plotted against the logarithm of the inhibitor concentration, and D50 (concentration of ligand reducing the binding of T4 by TTR by 50%) was determined using a four parameters dose-response curve with GraphPad Prism 5 (Table 1).

[1] = target: T2, TTR in whole human plasma (Homo sapiens, UniProt P02766); experiment: Displacement of 125I-T4 from TTR in normal human plasma; assay type: binding; conditions: wild type TTR, 30 min 37° C. with ligand, immunoprecipitation, mean of at least 3 replicates; for IC50: read-out: D50 plasma
T2 construct: TTR in whole plasma, from individuals homozygous for wild type TTR; from tissue; host or cells: whole human plasma
Procedure: 3.2 Displacement of ^125-T4 from TTR in Normal Human Plasma.
The displacement of ^125I-T4 from TTR in whole plasma, from individuals homozygous for wild type TTR, was studied by incubating plasma with each ligand at increasing concentrations for 30 min at 37° C., further incubation with […] followed by measurement of the radioactivity in the immunoprecipitate obtained with anti-TTR antibodies. […] Percentage binding was plotted against the logarithm of the inhibitor concentration, and D50 (concentration of ligand reducing the binding of T4 by TTR by 50%) was determined using a four parameter dose-response curve with GraphPad Prism 5 (Table 1).

[2] = target: T3, recombinant Val122Ile TTR (Homo sapiens, UniProt P02766, V142I); experiment: Mechano-enzymatic fibrillogenesis, TTR aggregation by turbidity at 400 nm; assay type: biochemical; conditions: equimolar ligand, Val122Ile TTR 9 μM, trypsin, 96 h, 100 % = protein without ligand, mean (SD)
T3 construct: the non-covalently associated protomers, of mass 13,761, each contain 127 residues; His6 (N); TEV cleavage site (N); made in house; host or cells: E. coli BL21 (DE3)
Procedure: (§1) Briefly, fibrillogenesis of recombinant Val122Ile TTR at 0.5 mg/ml (9 μM) in PBS, pH 7.4 was carried out in glass vials stirred at 1,400 rpm (IKA magnetic stirrer) and 37° C. in the presence and in the absence of trypsin (5 ng/μl). […] Each ligand was tested at 4 different concentrations (4.5, 9, 18, 36 μM respectively) corresponding to the following drug/TTR molar ratios of 0.5:1, 1:1, 2:1 and 4:1. Several dilutions of the drug stock solutions were made in order to add the same volume of DMSO to each sample. Control samples without drug were added with the same volume of DMSO only. To allow complete binding of ligand by TTR each sample was incubated for 30 min at 37° C. before addition of trypsin. Spectrophotometric turbidity at 400 nm was used to monitor fibril formation over time until it reached a plateau at 96 h. Aggregation of TTR in the presence of equimolar ligand concentrations was quantified as spectrophotometric turbidity at 400 nm as a proportion of 100% for aggregation of the protein in the absence of ligands (Table 2).

[3] = target: T3, recombinant Val122Ile TTR; experiment: Mechano-enzymatic fibrillogenesis, TTR amyloid by ThT emission fluorescence; assay type: biochemical; conditions: equimolar ligand, 96 h pellets, normalized to 100 % without ligand, mean (SD)
Procedure: as §1
At the end of the 96 h aggregation, pellets were harvested from each protein sample by 20 min centrifugation at 11,600 g, thoroughly rinsed with PBS to remove non-bound ligand, resuspended with 100 μl PBS, pH 7.4 containing 10 μM ThT in Costar 96-well black-wall plates. Bottom fluorescence values (excitation 440 nm, emission 480 nm) were recorded using a BMG LABTECH FLUostar Omega plate reader. Each value was normalized to the ThT signal of the TTR sample without ligand (Table 2)

[4] = Rat oral pharmacokinetics; conditions: in vivo, 5 mg/kg, 5 mpk
Rat IV pharmacokinetics = conditions: in vivo, 1 mg/kg, 1 mpk, read-out: Rat IV PK t½ (converted)
[5] = target: T4, native recombinant wild type TTR (Homo sapiens, UniProt P02766); experiment: Kinetics of ligand binding by TTR (stopped flow quenching of intrinsic fluorescence); conditions: TTR 1 μM with equimolar ligand, 37° C., PBS pH 7.4; t½ = ln 2/k
T4 construct: the non-covalently associated protomers, of mass 13,761, each contain 127 residues; His6 (N); TEV cleavage site (N); made in house; host or cells: E. coli BL21 (DE3)
Procedure: Ligand binding by native TTR quenches the intrinsic fluorescence of the protein. After mixing of ligands with TTR in solution, monitoring emission of the intrinsic fluorescence over time defines the rate at which the ligand is bound by the protein. The fast phase of these binding kinetics was characterized using an SFM 3000 stopped flow device coupled to a MOS500 spectrometer with a fluorescence detection system (Bio Logic, Claix, France) and a cell path length of 1.5 mm. TTR and ligands at 37° C. were mixed at final concentrations of 1 μM each in PBS pH 7.4 containing 0.9% v/v DMSO, and were excited at 280 nm for measurement of total fluorescence emission over 325 nm using a cut off filter. Kinetic data were acquired as the average of at least 3 experimental mixings and fitted to a first order reaction using the general formula y(t)=at +b+C exp (−kt), where y(t) is the observed fluorescence, a (slope) and b (offset) corresponding to the baseline. C and k are, respectively, amplitude and rate constant of the observed fluorescence change. Data were analysed using the Biokine software and values of half-life time (t½) correspond to ln 2/k. (Table 3).

SMILES | IC50 (isolated wild type TTR) [nM] | IC50 [1] [nM] | % Aggregation (Turbidity method) [2] | % Aggregation (Fluorescence method) [3] | Cmax [4] [ng/mL] | half-life (Rat IV pharmacokinetics) [h] | % Aggregation (Turbidity method) ([2]; listed as T-663 (B3)) | % Aggregation (Fluorescence method) ([3]; listed as T-663 (B3)) | T 1/2 [5] [s] | D50 plasma [1]
O=C(O)CCc1cc(Cl)c(OCC[C@@H](O)[C@H](O)CCOc2ccc(-c3nc4ccc(C(=O)O)cc4o3)cc2Cl)c(Cl)c1 [Compound B17, 2-[4-[(3R,4R)-6-[4-(2-carboxyethyl)-2,6-dichloro-phenoxy]-3,4-dihydroxy-hexoxy]-3-chloro-phenyl]-1,3-benzoxazole-6-carboxylic acid] | 100 | 17300 | 4.52 (1.08) % | 3.86 (2.29) % |  |  |  |  |  | 
O=C(O)CCc1cc(Cl)c(OCCOCCCCOc2c(Cl)cc(Nc3ccccc3C(=O)O)cc2Cl)c(Cl)c1 [Compound B2, 2-[4-[4-[2-[4-(2-carboxyethyl)-2,6-dichloro-phenoxy]ethoxy]butoxy]-3,5-dichloro-anilino]benzoic acid] | 100 | 2590 | 5.25 (1.68) % | 4.36 (1.51) % |  |  |  |  |  | 
O=C(O)CCc1cc(Cl)c(OCC[C@@H](O)[C@H](O)CCOc2c(Cl)cc(Nc3ncccc3C(=O)O)cc2Cl)c(Cl)c1 [Compound B3, 2-[4-[(3R,4R)-6-[4-(2-carboxyethyl)-2,6-dichloro-phenoxy]-3,4-dihydroxy-hexoxy]-3,5-dichloro-anilino]pyridine-3-carboxylic acid] | 70 | 1700 |  |  |  |  | 5.11 (1.58) % | 4.49 (2.08) % |  | 
Cc1n[nH]c(COCCCOCCCOc2c(Cl)cc(CCC(=O)O)cc2Cl)c1CCCOc1cc(C(=O)O)ccc1F [Compound B9, 3-[3-[5-[3-[3-[4-(2-carboxyethyl)-2,6-dichloro-phenoxy]propoxy]propoxymethyl]-3-methyl-1H-pyrazol-4-yl]propoxy]-4-fluorobenzoic acid] | 1350 |  | 17.1 (0.66) % | 9.34 (4.36) % |  |  |  |  |  | no binding
O=C(O)CCc1cc(Cl)c(OCC[C@@H](O)[C@H](O)CCOc2c(Cl)cc(-c3nc4ccc(C(=O)O)cc4o3)cc2Cl)c(Cl)c1 [Compound B16, 2-[4-[(3R,4R)-6-[4-(2-carboxyethyl)-2,6-dichloro-phenoxy]-3,4-dihydroxy-hexoxy]-3,5-dichloro-phenyl]-1,3-benzoxazole-6-carboxylic acid] | 90 | 14100 | 4.42 (1.45) % | 4.76 (3.13) % |  |  |  |  | 1.415 | 
O=C(O)CCOCCCOCCCOCCCOc1c(Cl)cc(Nc2ccccc2C(=O)O)cc1Cl [Compound B6, 2-[4-[3-[3-[3-(2-carboxyethoxy)propoxy]propoxy]propoxy]-3,5-dichloro-anilino]benzoic acid] | 1170 | 39700 | 6.24 (1.71) % | 12.0 (4.44) % |  |  |  |  |  | 
O=C(O)CCc1cc(Cl)c(OCCCOCCOc2c(Cl)cc(Nc3cnncc3C(=O)O)cc2Cl)c(Cl)c1 [Compound B24, 5-[4-[2-[3-[4-(2-carboxyethyl)-2,6-dichloro-phenoxy]propoxy]ethoxy]-3,5-dichloro-anilino]pyridazine-4-carboxylic acid] | 140 | 7600 | 6.60 (2.40) % | 10.6 (10.5) % |  |  |  |  |  | 
Cc1n[nH]c(COCCCCOCCOc2c(Cl)cc(CCC(=O)O)cc2Cl)c1CCCOc1cc(C(=O)O)ccc1F [Compound B10, 3-[3-[5-[4-[2-[4-(2-carboxyethyl)-2,6-dichloro-phenoxy]ethoxy]butoxymethyl]-3-methyl-1H-pyrazol-4-yl]propoxy]-4-fluoro-benzoic acid] | 5600 |  | 14.88 (nd) % | 16.6 (nd) % |  |  |  |  |  | no binding

Second part, led by results:

IC50 (isolated wild type TTR) [nM] | IC50 [1] [nM] | % Aggregation (Turbidity method) [2] | % Aggregation (Fluorescence method) [3] | Cmax [4] [ng/mL] | half-life (Rat IV pharmacokinetics) [h] | % Aggregation (Turbidity method) ([2]; listed as T-663 (B3)) | % Aggregation (Fluorescence method) ([3]; listed as T-663 (B3)) | T 1/2 [5] [s] | SMILES | D50 plasma [1]
90 | 1400 | 3.93 (1.73) % | 4.62 (2.37) % | 1450 | 5.5 |  |  |  | O=C(O)CCc1cc(Cl)c(OCCCOCCOc2c(Cl)cc(Nc3cnccc3C(=O)O)cc2Cl)c(Cl)c1 [Compound B26, 3-[4-[2-[3-[4-(2-carboxyethyl)-2,6-dichloro-phenoxy]propoxy]ethoxy]-3,5-dichloro-anilino]pyridine-4-carboxylic acid] | 
80 | 3600 | 7.62 (3.39) % | 19.2 (13.0) % |  |  |  |  |  | O=C(O)CCc1cc(Cl)c(OCCOCCCOc2c(Cl)cc(-c3nc4ccc(C(=O)O)cc4o3)cc2Cl)c(Cl)c1 [Compound B29, 2-[4-[3-[2-[4-(2-carboxyethyl)-2,6-dichloro-phenoxy]ethoxy]propoxy]-3,5-dichloro-phenyl]-1,3-benzoxazole-6-carboxylic acid] | 
80 | 20000 | 9.30 (4.32) % | 24.5 (8.90) % |  |  |  |  |  | O=C(O)CCc1cc(Cl)c(OCCCOCCOc2c(Cl)cc(-c3nc4ccc(C(=O)O)cc4o3)cc2Cl)c(Cl)c1 [Compound B28, 2-[4-[2-[3-[4-(2-carboxyethyl)-2,6-dichloro-phenoxy]propoxy]ethoxy]-3,5-dichloro-phenyl]-1,3-benzoxazole-6-carboxylic acid] | 
70 | 3200 | 3.96 (1.04) % | 8.96 (7.24) % | 217 | 6.97 |  |  |  | O=C(O)CCc1cc(Cl)c(OCCCOCCOc2c(Cl)cc(Nc3ccnnc3C(=O)O)cc2Cl)c(Cl)c1 [Compound B25, 4-[4-[2-[3-[4-(2-carboxyethyl)-2,6-dichloro-phenoxy]propoxy]ethoxy]-3,5-dichloro-anilino]pyridazine-3-carboxylic acid] | 
